Reference: patent US9645147B2, “Recombinant polypeptide construct comprising Plasmodium falciparum circumsporozoite protein HLA class I restricted T-cell epitopes” (priority 2013, dated 2017)
“Also recorded” adds a separate entry of the source. Peptide text beside a SMILES is read from it.

Key:
Type in all cases: cell-based, human
[1] = system: PBMC from volunteers immunized with Ad-CA or Ad-C; experiment: IFN-γ ELISpot assay with cryopreserved PBMC of immunized volunteers; conditions: for Epitope sfc/m: Table 4; for ELISpot response to synthesized epitope (in words): volunteers, positive = p<0.05, at least doubling and at least ten sfc over negative control
Experimental: Previous studies have confirmed that recall-T cell responses, as assayed by ELISpot, are detected using cryopreserved PBMCs although such responses are generally of a lower magnitude than fresh cells (Sedegah, et al., Malar J., 9: 241 (2011)).
The positive control was commercially obtained Class I Peptide Pool Plus (Anaspec, USA). Negative control was media with all supplements but no antigen-specific stimulant.
Throughout the studies, IFN-γ ELISpot assays were conducted as previously described (Sedegah, et al., Malar J., 9: 241 (2011); Wang, et al., PNAS (USA), 98: 10817-22 (2001)). Cryopreserved PBMC were suspended in 100 μL complete medium and stimulated with CSP peptides in 100 μL of complete medium at a final concentration of 10 μg/mL of each peptide tested (Wang, et al., PNAS (USA), 98: 10817-22 (2001)).
Cultures were incubated for 36 hours at 37° C., 5% CO2. Depending on availability of cells, each PBMC sample was assayed in duplicate, triplicate, or quadruplicate and the number of IFN-γ-secreting spot forming cells (sfc) was counted using an automated ELISpot reader (AID, GmbH, Germany). In duplicate assays, all values were used in analysis. […] The mean number of sfcs obtained in negative control wells was subtracted from the value of each test well from the same sample. Negative counts generated by this background subtraction were converted to zero. The mean number of spots of the test sample was then calculated and expressed as spot forming cells/million (sfc/m). A positive response was defined as a significant difference (p=<0.05) between average of the number of spot forming cells (sfc) in test wells and the average of negative control wells (Student's two tailed t-test), and at least a doubling of sfc in test wells relative to negative control wells, and a difference of at least ten sfc between test and negative control wells (Sedegah, et al., PLoS One, 6: e24586 (2011)).

[2] = system: PBMC depleted of T-cell subsets; experiment: ELISpot IFN-γ after T-cell subset depletion (CD4+ or CD8+ Dynabeads, mock control); conditions: for confirmation as recalling CD8+ T cell responses: ELISpot depletion and ICS studies; for CD4+ depl. sfc/m: after CD4+ T cell depletion; for CD4+ depl. (%) percent change in ELISpot activity: after CD4+ T cell depletion vs control depletion; for CD8+ depl. sfc/m: after CD8+ T cell depletion; for CD8+ depl. (%) percent change in ELISpot activity: after CD8+ T cell depletion vs control depletion; for Control dept. sfc/m: mock (control) depletion
Source text: For characterization of ELISpot IFN-γ-producing cells by T-cell subset depletions PBMC were depleted of T-cell subsets using anti-human CD4+ or anti-CD8+ coated Dynabeads M-450 (Dynal, Great Neck, N.Y.) following the manufacturer's instructions. Mock depletion was done with Dynabeads coated with sheep anti-mouse IgG. Flow cytometry confirmed that T-cell subset depletions were >99% in all experiments. Data are presented as the spot-forming cells/million (sfc/m) and percent decrease or increase in activity after depletion.
To further evaluate the predicted epitopes, ELISpot depletion assays were performed using PBMC from four volunteers stimulated with six predicted and tested epitopes. CD8+ T cell depletion reduced responses to Cp1 and Cp9 by 82%100%.

CD8+ T cells = experiment: Intracellular cytokine staining (ICS), IFN-γ, CD8+ population; conditions: for ICS CD8+ T cell recall responses (in words): ICS assays, volunteers of Table 6; for CD8+ % (per cent of CD8+ T cells expressing IFN-γ): ICS, positive >0.03%
Experimental: (§1) Intracellular cytokine staining (ICS) was performed as published previously (Stewart, et al, Infect. Immun., 75: 2283-90 (2007)). Cryopreserved PBMC were thawed, washed, and resuspended at 10×10^6 cells per mL in complete medium. Peptides were used at 10 μg/mL and costimulatory antibodies anti-CD28 and […] (BD Bioscience, San Jose, Calif.) were used at 1 μg/mL. Stimulants were added to cells and incubated at 37° C. with 5% CO2 for 2 hours. Cells were stained with anti-CD3, anti-CD4, anti-CD8, anti-IFN-γ, anti-TNFα, and anti-IL2 and the entire available sample was acquired on a BD LSRII using FACSDiVa (BD Bioscience) software. Data were analyzed using FlowJo Software (Treestar, Inc.). The gating strategy involved progressively measuring total cells; viable cells; lymphocytes; T cells; CD4+ or CD8+ populations; and finally a specific cell type expressing a specific cytokine. Results were transferred to Prism (GraphPad) for graphing and statistical analysis. Data for peptides were corrected for media responses. A positive response was greater than the medium controls+3 standard deviations (0.03%).

CD4+ T cells = experiment: Intracellular cytokine staining (ICS), IFN-γ, CD4+ population; conditions: for ICS CD4+ T cell recall responses (in words): ICS assays, volunteers of Table 6; for CD4+ % (per cent of CD4+ T cells expressing IFN-γ): ICS, positive >0.03%
Experimental: as §1

[3] = volunteer 40 (Ad-C), synthesized epitope, first of two assays
[4] = volunteer 40 (Ad-C), synthesized epitope, second assay (second value of the cell)

Compound | Epitope sfc/m [1, 3] | Epitope sfc/m [1, 4] | ELISpot response to synthesized epitope (in words) [1] | confirmation as recalling CD8+ T cell responses [2] | CD4+ depl. sfc/m ([2]; V40) | CD4+ depl. (%) percent change in ELISpot activity ([2]; V40) | CD8+ depl. sfc/m ([2]; V40) | CD8+ depl. (%) percent change in ELISpot activity ([2]; V40) | Control dept. sfc/m ([2]; V40) | ICS CD8+ T cell recall responses (in words) (CD8+ T cells) | CD8+ % (per cent of CD8+ T cells expressing IFN-γ) (CD8+ T cells; V40) | ICS CD4+ T cell recall responses (in words) (CD4+ T cells) | CD4+ % (per cent of CD4+ T cells expressing IFN-γ) (CD4+ T cells; V40) | other results
CC(C)C[C@H](NC(=O)[C@H](C)NC(=O)[C@H](CCC(=O)O)NC(=O)[C@@H](NC(=O)[C@H](Cc1ccccc1)NC(=O)[C@H](CC(C)C)NC(=O)[C@H](Cc1ccccc1)NC(=O)[C@@H](N)CO)C(C)C)C(=O)N[C@@H](Cc1ccccc1)C(=O)O [Epitope E20] (H-SFLFVEALF-OH; N-terminus and C-terminus assumed) | 313 sfc/m | 197 sfc/m | moderately positive; also recorded: demonstrated activity | confirmed as recalling CD8+ T cell responses | 226 sfc/m | −11% | 15 sfc/m | −94% | 254 sfc/m | positive | 0.37% | negative | 0.04% | Epitope sfc/m ([1]; volunteer 37 (Ad-C), synthesized epitope, second assay (second value of the cell)): 53, 53 sfc/m; Epitope sfc/m ([1]; volunteer 37 (Ad-C), synthesized epitope, single value or first of two assays): 53, 53 sfc/m; Epitope sfc/m ([1]; volunteer 68 (Ad-C), synthesized 8-10mer epitope): 34 sfc/m; Epitope sfc/m ([1]; volunteer 156 (Ad-CA), synthesized 8-10mer epitope): 240 sfc/m; CD4+ depl. sfc/m ([2]; V156): 273 sfc/m; CD4+ depl. (%) percent change in ELISpot activity ([2]; V156): +28%; CD8+ depl. sfc/m ([2]; V156): 29 sfc/m; CD8+ depl. (%) percent change in ELISpot activity ([2]; V156): −86%; Control dept. sfc/m ([2]; V156): 213 sfc/m; CD8+ % (per cent of CD8+ T cells expressing IFN-γ) (CD8+ T cells; V156): 0.25%; CD4+ % (per cent of CD4+ T cells expressing IFN-γ) (CD4+ T cells; V156): 0.01%
VFNVVNSSI [Epitope E13a] | 104 sfc/m | 72 sfc/m | demonstrated activity | confirmed as recalling CD8+ T cell responses | 43 sfc/m | −50% | 38 sfc/m | −56% | 86 sfc/m | positive | 0.12% | negative | 0.01% | percent reduction of ELISpot response after CD8+ T cell depletion ([2]; text summary over the four volunteers of Table 6): 56%
